Reference: US20040038226A1, “Transgenic animal model by mineralocorticoid receptor antisense expression” (priority 2000, published 2004)

Biological target: T1, mMR (Mus musculus, UniProt Q8VII8)
T1 construct: the level of expression of the endogenous mMR observed in the control males; endogenous in cells; host or cells: whole mice in vivo: double transgenic alphaMHC-tTA/MR animals, with cardiac mMR mRNA lowered by about 50% by the antisense, and wild or single transgenic controls
T1 sequence (Q8VII8 1-978): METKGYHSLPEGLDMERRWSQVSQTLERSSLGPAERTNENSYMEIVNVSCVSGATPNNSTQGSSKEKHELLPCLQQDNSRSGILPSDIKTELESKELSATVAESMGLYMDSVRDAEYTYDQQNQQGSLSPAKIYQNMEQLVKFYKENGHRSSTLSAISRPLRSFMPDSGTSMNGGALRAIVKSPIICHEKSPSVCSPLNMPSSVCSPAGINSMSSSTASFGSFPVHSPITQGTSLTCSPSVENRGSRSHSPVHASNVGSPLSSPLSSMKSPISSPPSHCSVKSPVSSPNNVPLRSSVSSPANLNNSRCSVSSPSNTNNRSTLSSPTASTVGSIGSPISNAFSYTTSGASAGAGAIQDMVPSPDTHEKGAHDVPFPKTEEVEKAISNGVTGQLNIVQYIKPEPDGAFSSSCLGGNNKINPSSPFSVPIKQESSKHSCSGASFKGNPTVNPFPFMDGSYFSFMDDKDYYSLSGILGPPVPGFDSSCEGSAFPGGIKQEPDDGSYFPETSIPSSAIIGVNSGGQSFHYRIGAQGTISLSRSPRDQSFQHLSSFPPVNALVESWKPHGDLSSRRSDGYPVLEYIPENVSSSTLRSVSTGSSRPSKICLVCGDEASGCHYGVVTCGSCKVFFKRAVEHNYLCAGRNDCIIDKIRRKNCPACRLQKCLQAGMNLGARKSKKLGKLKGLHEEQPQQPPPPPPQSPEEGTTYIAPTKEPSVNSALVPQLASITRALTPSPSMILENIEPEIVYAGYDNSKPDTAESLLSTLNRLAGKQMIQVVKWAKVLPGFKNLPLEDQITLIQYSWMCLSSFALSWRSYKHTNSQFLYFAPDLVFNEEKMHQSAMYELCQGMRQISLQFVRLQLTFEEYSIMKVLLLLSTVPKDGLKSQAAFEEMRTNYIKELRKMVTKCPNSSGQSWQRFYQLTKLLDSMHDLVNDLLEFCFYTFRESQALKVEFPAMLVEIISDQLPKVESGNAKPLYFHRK
Assay: Administration of spironolactone to control animals (wild or single transgenic)
Type: in vivo, mice
Conditions: 30 mg/kg/day

**Q.** How did the “functional or structural alteration of the heart” value turn out when `CC(=O)S[C@@H]1CC2=CC(=O)CC[C@]2(C)[C@H]2CC[C@@]3(C)[C@@H](CC[C@@]34CCC(=O)O4)[C@H]12` [spironolactone] was run?
**A.** does not produce any functional or structural alteration
